Test results from patent US9540649B2, “Method for opening tight junctions” (The Provost, Fellows and Scholars of the College of the …, priority 2007, dated 2017).
Entries after “also recorded” stand apart in the source; their conditions may differ.

Tests used:
Type in all cases: in vivo, C57/Bl6 mice
claudin-5 mRNA = test: Real-time RT-PCR analysis of claudin-5 mRNA in brain post-injection of siRNA
Procedure: Rapid high pressure, high volume tail vein injections were carried out (Kiang et al., 2005). Wild type C57/Bl6 mice of weight 20-30 g were individually restrained inside a 60-ml volume plastic tube. The protruding tail was warmed for 5 minutes prior to injection under a 60-W lamp and the tail vein clearly visualized by illumination from below. 20 micrograms of targeting siRNA, or non-targeting siRNA made up with PBS to a volume in mls of 10% of the body weight in grams or PBS alone, was injected into the tail vein at a rate of 1 ml/sec using a 26-gauge (26 G 3/8) needle. After 24, 48, 72 hours and 1 week, protein was isolated from total brain tissue by crushing brains to a fine powder in liquid N2 and subsequently using lysis buffer containing 62.5 mM Tris, 2% SDS, 10 mM Dithiothreitol, 10 μl protease inhibitor cocktail/100 ml (Sigma Aldrich, Ireland). The homogenate was centrifuged at 10,000 g for 20 mins @4° C., and the supernatant was removed for claudin-5 analysis.
At the same time points post-delivery of siRNA total RNA was isolated from brains using Trizol (Invitrogen). RNA was then treated with RNase-free DNase (Promega, Madison, Wis., USA) and then chloroform extracted, isopropanol precipitated, washed with 75% RNA grade ethanol and resuspended in 100 μl RNase-free water.
RNA was analyzed by real-time RT-PCR using a Quantitect Sybr Green Kit as outlined by the manufacturer (Qiagen-Xeragon) on a LightCycler (Roche Diagnostics, Lewes, UK) under the following conditions: 50° C. for 20 min; 95° C. for 15 min; 38 cycles of 94° C. for 15 s, 57° C. for 20 s, 72° C. for 10 s.
cDNA fragments were amplified from claudin-5 and β-actin for each RNA sample a minimum of four times. Results were expressed as a percentage of those from the similarly standardized appropriate control experiment. The reciprocal values compared to the non-targeting control siRNA gave percentage suppression of claudin-5 expression. Mean values, standard deviations, and pooled t tests were calculated using GraphPad Prism©. Differences were deemed statistically significant at P<0.05.

occludin = test: Occludin expression following suppression of claudin-5 (Western blot, immunohistochemistry); conditions: all time points post-delivery of claudin-5 siRNA
BBB [1] = test: Assessment of BBB integrity by perfusion of biotinylated tracer EZ-Link Sulfo-NHS-Biotin (443 Da)
Procedure: Following RNAi-mediated ablation of transcripts encoding claudin-5, a tracer molecule was used to determine the extent to which the TJ's of the BBB had been affected. The biotinylated reagent EZ-Link™ Sulfo-NHS-Biotin (Pierce) (1 ml/g body weight of 2 mg/ml EZ-Link™ Sulfo-NHS-Biotin, 443 Da) was perfused for 5 minutes through the left ventricle of mice 24, 48, 72 hours and 1 week post-hydrodynamic delivery of claudin-5 siRNA. Following perfusion with the tracer molecule, the whole brain was dissected and placed in 4% PFA pH 7.4 overnight at 4° C. and subsequently washed 4×15 mins with PBS. Following cryoprotection with sucrose, frozen sections were cut on a cryostat at −20° C. and incubated with streptavidin conjugated to the fluorescent probe FITC. This allowed for the assessment of leakage of the biotinylated reagent of molecular weight 443 Da from the microvessels of the brain. All sections were counterstained with 4′,6-diamidine-2-phenylindole-dihydrochloride (DAPI; Sigma Aldrich, Ireland) for 30 seconds at a dilution of 1:5000 of a stock 1 mg/ml solution, and sections were visualized using an Olympus FluoView™ FV1000 Confocal microscope.

BBB [2] = test: MRI assessment of BBB integrity with contrasting agent Gd-DTPA (742 Da)
Procedure: Following injection of siRNA and using appropriate controls, BBB integrity was assessed in vivo via MRI, using a dedicated small rodent Bruker BioSpec 70/30 (i.e. 7 T, 30 cm bore) with an actively shielded USR Magnet. Mice were anaesthetised with isofluorane, and physiologically monitored (ECG, respiration and temperature) and placed on an MRI-compatible support cradle, which has a built-in system for maintaining the animal's body temperature at 37° C. The cradle was then positioned within the MRI scanner. Accurate positioning is ensured by acquiring an initial rapid pilot image, which is then used to ensure the correct geometry is scanned in all subsequent MRI experiments. Upon insertion into the MRI scanner, high resolution anatomical images of the brain were acquired (100 μm in-plane and 500 μm through-plane spatial resolution). BBB integrity was then visualised in high resolution T1 weighted MR images before and after injection of a 0.1 mM/L/kg bolus of Gd-DTPA (Gadolinium diethylene-triamine pentaacetic acid), administered via the tail vein.
Gd-DTPA was injected in the tail vein to assess whether Gd-TPA would permeate across the BBB. Following injection of siRNA and using appropriate controls, BBB integrity to a molecule of 742 Daltons (Gd-DTPA) was assessed via MRI, using a dedicated small rodent Bruker BioSpec 70/30 (i.e. 7 T, 30 cm bore) with an actively shielded USR Magnet. Mice were anaesthetised with isofluorane, and physiologically monitored (ECG, respiration and temperature) and placed on an MRI-compatible support cradle, which has a built-in system for maintaining the animal's body temperature at 37° C. The cradle was then positioned within the MRI scanner. Accurate positioning is ensured by acquiring an initial rapid pilot image, which is then used to ensure the correct geometry is scanned in all subsequent MRI experiments. Upon insertion into the MRI scanner, high resolution anatomical images of the brain were acquired (100 μm in-plane and 500 μm through-plane spatial resolution). BBB integrity was then visualised in high resolution T1 weighted MR images before and after injection of a 0.1 mM/L/kg bolus of Gd-DTPA (Gadolinium diethylene-triamine pentaacetic acid), administered via the tail vein. Following injection of Gd-DTPA, repeated 3 minute T1-weighted scans were performed over a period of 30 minutes, and images shown are representative of the final scans of this 30 minute period. Statistical analysis of all densitometric results of combined regions of the Cerebellum, Hippocampus and Cortex was performed using ANOVA, with significance represented by a P value of ≦0.05, and results are presented both graphically and in a quantitative image depicting the rate of Gd-DTPA deposition within the brain. All MRI scans were performed on 2 mice from each experimental treatment.

[3] = 48 hours post-injection, listed as siRNA targeting claudin-5

claudin-5 siRNA: siRNA, sense CGUUGGAAAUUCUGGGUCUUU (SEQ ID NO: 1), antisense AGACCCAGAAUUUCCAACGUU (SEQ ID NO: 2) (listed as RNA, chemistry not given here)
claudin-5 mRNA level, RT-PCR, brain (claudin-5 mRNA; 1 week post-injection, vs non-targeting control): not significantly changed
claudin-5 mRNA levels suppressed with respect to the non-targeting control siRNA (claudin-5 mRNA; 24 hours post-injection): up to 95%
claudin-5 mRNA level, RT-PCR, brain (claudin-5 mRNA; 24 hours post-injection, vs control groups): significantly decreased
claudin-5 mRNA level, RT-PCR, brain (claudin-5 mRNA; 24 hours post-injection, vs control groups, listed as siRNA targeting claudin-5): significant decrease
claudin-5 mRNA level, RT-PCR, brain (claudin-5 mRNA; 48 hours post-injection, vs control groups): showing suppression
claudin-5 mRNA level, RT-PCR, brain (claudin-5 mRNA; 72 hours post-injection, vs non-targeting control): not significantly changed
occludin expression, Western blot (occludin): remain un-changed at all time points
BBB permeability to EZ-Link Sulfo-NHS-Biotin (443 Da) (BBB [1]; 1 week post-injection): no evidence for BBB compromise; also recorded: failed to deposit in the parenchyma; also recorded: did not allow for the passage; also recorded: no longer crossed the BBB
BBB permeability to EZ-Link Sulfo-NHS-Biotin (443 Da) (BBB [1]; 1 week post-injection, listed as siRNA targeting claudin-5): did not deposit in the parenchyma
BBB permeability to EZ-Link Sulfo-NHS-Biotin (443 Da) (BBB [1]; 24 hours post-injection, perfusion 5 minutes, listed as siRNA targeting claudin-5): diffuse and outside of the microvessels; also recorded: increase in permeability; also recorded: infiltration of the molecule into the parenchyma of the brain
BBB permeability to EZ-Link Sulfo-NHS-Biotin (443 Da) (BBB [1]; 48 hours post-injection): abundant in the brain parenchyma
BBB permeability to EZ-Link Sulfo-NHS-Biotin (443 Da) (BBB [1]; [3]): very distinct; also recorded: detected in abundance
BBB permeability to EZ-Link Sulfo-NHS-Biotin (443 Da) (BBB [1]; 72 hours post-delivery): permeability was still evident; also recorded: still evidenced
BBB permeability to EZ-Link Sulfo-NHS-Biotin (443 Da) (BBB [1]; 72 hours post-delivery, listed as siRNA targeting claudin-5): significant compromise in barrier function; also recorded: crossed the BBB
densitometric analysis of MRI contrasting, Cerebellum, Hippocampus and Cortex combined (BBB [2]; 24 hours and 48 hours post injection, vs control groups): significant increase in contrasting
Gd-DTPA (742 Da) passage across BBB, MRI (BBB [2]; 24 hours post-injection): Gd-DTPA crossed the BBB and was deposited within the brain
Gd-DTPA (742 Da) passage across BBB, MRI (BBB [2]; 48 hours post-injection): Gd-DTPA crossed the BBB and was deposited within the brain; also recorded: Gd-DTPA crossed the BBB and was deposited in the parenchymal tissue of the brain; also recorded: widespread and intense contrasting throughout the brain; also recorded: extremely large quantities of Gd-DTPA were deposited in the brain
Gd-DTPA (742 Da) passage across BBB, MRI (BBB [2]; [3]): enhanced contrasting within the brain
Gd-DTPA (742 Da) passage across BBB, MRI (BBB [2]; 72 hours or 1 week post-injection): intact barrier with no deposition of Gd-DTPA
Gd-DTPA (742 Da) passage across BBB, MRI (BBB [2]; 72 hours or 1 week post-injection, listed as siRNA targeting claudin-5): nor was it present; also recorded: no deposition of Gd-DTPA
